Data taken from patent US11226337B2, “Chemoproteomic profiling of protein electrophilic and oxidative post-translational modifications” (Zenagem, LLC, priority 2017, dated 2022).

Columns and labels:
Assay in all cases: SILAC RP-ABPP
Assay type in all cases: cell-based
[1] = biological target: T1, KEAP1 Kelchlike ECHassociated protein 1 (Q14145) (Homo sapiens, UniProt Q14145); conditions: SILAC H/L
T1 construct: shared by both the endogenous and recombinant forms of these proteins; endogenous in cells; host or cells: HEK293T and MDA-MB-231
T1 sequence (Q14145 whole entry): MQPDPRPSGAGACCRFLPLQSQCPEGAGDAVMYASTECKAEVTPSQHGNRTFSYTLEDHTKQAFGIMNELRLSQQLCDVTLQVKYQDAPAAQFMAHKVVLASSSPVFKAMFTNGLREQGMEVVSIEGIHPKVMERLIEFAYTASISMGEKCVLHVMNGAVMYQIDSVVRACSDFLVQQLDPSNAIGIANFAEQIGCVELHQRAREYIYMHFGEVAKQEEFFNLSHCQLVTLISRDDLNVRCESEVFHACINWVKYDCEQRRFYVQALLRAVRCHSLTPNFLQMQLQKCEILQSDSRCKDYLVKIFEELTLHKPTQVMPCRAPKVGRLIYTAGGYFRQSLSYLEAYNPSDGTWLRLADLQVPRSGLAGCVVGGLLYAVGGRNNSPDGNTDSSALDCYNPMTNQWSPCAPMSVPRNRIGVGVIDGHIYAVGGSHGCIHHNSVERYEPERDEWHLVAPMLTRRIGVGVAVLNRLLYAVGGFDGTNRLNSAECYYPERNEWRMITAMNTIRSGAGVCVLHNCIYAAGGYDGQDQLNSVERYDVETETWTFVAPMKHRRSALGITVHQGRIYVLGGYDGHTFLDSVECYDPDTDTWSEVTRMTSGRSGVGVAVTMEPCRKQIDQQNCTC

[2] = biological target: T2, SCPEP1 Retinoidinducible serine (Q9HB40) (Homo sapiens, UniProt Q9HB40); conditions: SILAC H/L
T2 construct: In Situ Labelling of Cells with Hydrazine Probes for MS Experiments; endogenous in cells; host or cells: HEK293T and MDA-MB-231
T2 sequence (Q9HB40 27-452): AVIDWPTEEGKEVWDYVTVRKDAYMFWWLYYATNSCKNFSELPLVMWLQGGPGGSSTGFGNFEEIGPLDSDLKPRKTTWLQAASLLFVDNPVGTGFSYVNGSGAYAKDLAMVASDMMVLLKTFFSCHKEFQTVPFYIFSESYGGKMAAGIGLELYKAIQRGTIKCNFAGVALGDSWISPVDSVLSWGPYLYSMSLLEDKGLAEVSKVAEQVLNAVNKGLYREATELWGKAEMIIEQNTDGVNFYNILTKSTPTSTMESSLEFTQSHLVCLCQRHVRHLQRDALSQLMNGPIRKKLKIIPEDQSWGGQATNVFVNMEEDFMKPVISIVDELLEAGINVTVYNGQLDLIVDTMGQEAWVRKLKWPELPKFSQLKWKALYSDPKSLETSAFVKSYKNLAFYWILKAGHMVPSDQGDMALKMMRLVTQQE

[3] = biological target: T3, ALDH2 Aldehyde dehydrogenase (P05091) (Homo sapiens, UniProt P05091); conditions: SILAC H/L, HEK293T
T3 construct: shared by both the endogenous and recombinant forms of these proteins; endogenous in cells; host or cells: HEK293T and MDA-MB-231
T3 sequence (P05091 18-517): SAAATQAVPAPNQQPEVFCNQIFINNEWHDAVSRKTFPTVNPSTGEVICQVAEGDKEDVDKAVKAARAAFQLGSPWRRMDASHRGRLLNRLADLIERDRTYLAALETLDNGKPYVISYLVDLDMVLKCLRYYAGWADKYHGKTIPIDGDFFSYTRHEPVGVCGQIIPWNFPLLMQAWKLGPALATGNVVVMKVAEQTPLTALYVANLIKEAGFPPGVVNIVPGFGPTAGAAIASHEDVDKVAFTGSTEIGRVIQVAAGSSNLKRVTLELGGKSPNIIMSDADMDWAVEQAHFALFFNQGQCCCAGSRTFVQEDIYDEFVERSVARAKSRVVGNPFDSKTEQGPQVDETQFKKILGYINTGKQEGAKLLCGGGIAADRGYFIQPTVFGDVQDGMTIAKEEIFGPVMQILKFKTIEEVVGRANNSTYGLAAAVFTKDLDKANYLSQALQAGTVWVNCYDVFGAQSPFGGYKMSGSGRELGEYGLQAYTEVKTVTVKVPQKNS
Method in brief: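 SILAC cells (HEK293T, MDA-MB-231) grown near confluence; heavy: probe 1, 3 mM, 0.5 h; light: equal 3 or probe + 10× 3. Proteomes mixed equimolar, CuAAC with 100 μM biotin-azide, 1 h RT; enrichment, LC-MS. Ratios via CIMAGE-type extraction, ≥3 peptides.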

[4] = probe 1 3 mM 0.5 h vs probe 3, HEK293T
[5] = probe 1 vs probe 1+10x probe 3, HEK293T
[6] = probe 2 1 mM 0.5 h vs probe 4, MDA-MB-231
[7] = probe 2 vs probe 2+10x probe 4, MDA-MB-231

Row | Compound | enrichment ratioavg [1, 4] | competition ratioavg [1, 5] | enrichment ratioavg [2, 4] | competition ratioavg [2, 5] | enrichment ratioavg ([3]; probe 1 3 mM 0.5 h vs probe 3) | competition ratioavg ([3]; probe 1 vs probe 1+10x probe 3) | enrichment ratioavg [1, 6] | competition ratioavg [1, 7] | enrichment ratioavg [2, 6] | competition ratioavg [2, 7] | enrichment ratioavg ([3]; probe 2 1 mM 0.5 h vs probe 4) | competition ratioavg ([3]; probe 2 vs probe 2+10x probe 4)
1 | C#CCNN.Cl [probe 1, prop-2-yn-1-ylhydrazine hydrochloride] | 17 | 20 | 5 | 2 | 8 | 2 | – | – | – | – | – | –
2 | C#CCCNC(=O)c1ccc(NN)cc1.Cl [probe 2, N-(but-3-yn-1-yl)-4-hydrazinylbenzamide hydrochloride] | – | – | – | – | – | – | 12 | 3 | 19 | 4 | 11 | 6
